Experiments:
Nucleic Acid [1] = experiment: Binding affinity to Escherichia coli pUC19 DNA assessed as form 2 DNA level at 0.349 mM after 26.15 hrs by agarose gel electrophoresis; assay type: nucleic-acid assay
Nucleic Acid [2] = experiment: Binding affinity to Escherichia coli pUC19 DNA assessed as form 1 DNA level at 0.175 mM after 27.33 hrs by agarose gel electrophoresis; assay type: nucleic-acid assay
Nucleic Acid [3] = experiment: Binding affinity to Escherichia coli pUC19 DNA assessed as form 1 DNA level at 0.175 mM after 9.07 hrs by agarose gel electrophoresis; assay type: nucleic-acid assay
Nucleic Acid [4] = experiment: Binding affinity to Escherichia coli pUC19 DNA assessed as form 1 DNA level at 0.349 mM after 23.02 hrs by agarose gel electrophoresis; assay type: nucleic-acid assay
Nucleic Acid [5] = experiment: Binding affinity to Escherichia coli pUC19 DNA assessed as form 2 DNA level at 0.698 mM after 10.70 hrs by agarose gel electrophoresis; assay type: nucleic-acid assay
Nucleic Acid [6] = experiment: Binding affinity to Escherichia coli pUC19 DNA assessed as form 2 DNA level at 0.262 mM after 26.15 hrs by agarose gel electrophoresis; assay type: nucleic-acid assay
Nucleic Acid [7] = experiment: Binding affinity to Escherichia coli pUC19 DNA assessed as form 1 DNA level at 0.698 mM after 3.72 hrs by agarose gel electrophoresis; assay type: nucleic-acid assay
Nucleic Acid [8] = experiment: Binding affinity to Escherichia coli pUC19 DNA assessed as form 2 DNA level at 0.175 mM after 13.07 hrs by agarose gel electrophoresis; assay type: nucleic-acid assay
Nucleic Acid [9] = experiment: Binding affinity to Escherichia coli pUC19 DNA assessed as form 2 DNA level at 0.320 mM after 29.33 hrs by agarose gel electrophoresis; assay type: nucleic-acid assay
Nucleic Acid [10] = experiment: Binding affinity to Escherichia coli pUC19 DNA assessed as form 1 DNA level at 0.130 mM after 11.30 hrs by agarose gel electrophoresis; assay type: nucleic-acid assay
Nucleic Acid [11] = experiment: Binding affinity to Escherichia coli pUC19 DNA assessed as form 2 DNA level at 0.463 mM after 23.12 hrs by agarose gel electrophoresis; assay type: nucleic-acid assay
Nucleic Acid [12] = experiment: Binding affinity to Escherichia coli pUC19 DNA assessed as form 2 DNA level at 0.463 mM after 31.48 hrs by agarose gel electrophoresis; assay type: nucleic-acid assay
Nucleic Acid [13] = experiment: Binding affinity to Escherichia coli pUC19 DNA assessed as form 2 DNA level at 0.262 mM after 27.07 hrs by agarose gel electrophoresis; assay type: nucleic-acid assay
Nucleic Acid [14] = experiment: Binding affinity to Escherichia coli pUC19 DNA assessed as form 1 DNA level at 0.698 mM after 10.70 hrs by agarose gel electrophoresis; assay type: nucleic-acid assay
Nucleic Acid [15] = experiment: Binding affinity to Escherichia coli pUC19 DNA assessed as form 1 DNA level at 0.262 mM after 27.07 hrs by agarose gel electrophoresis; assay type: nucleic-acid assay
Nucleic Acid [16] = experiment: Binding affinity to Escherichia coli pUC19 DNA assessed as form 2 DNA level at 0.349 mM after 5.40 hrs by agarose gel electrophoresis; assay type: nucleic-acid assay
Nucleic Acid [17] = experiment: Binding affinity to Escherichia coli pUC19 DNA assessed as form 2 DNA level at 0.320 mM after 23.12 hrs by agarose gel electrophoresis; assay type: nucleic-acid assay
Nucleic Acid [18] = experiment: Binding affinity to Escherichia coli pUC19 DNA assessed as form 2 DNA level at 0.349 mM by agarose gel electrophoresis; assay type: nucleic-acid assay
Nucleic Acid [19] = experiment: Binding affinity to Escherichia coli pUC19 DNA assessed as form 1 DNA level at 0.175 mM by agarose gel electrophoresis; assay type: nucleic-acid assay
Nucleic Acid [20] = experiment: Binding affinity to Escherichia coli pUC19 DNA assessed as form 1 DNA level at 0.175 mM after 29.33 hrs by agarose gel electrophoresis; assay type: nucleic-acid assay
HL-60 = experiment: Growth inhibition of human HL60 cells at 10 uM after 72 hrs by MTT assay; assay type: functional; parameters: scale not given: the % may be the effect or the level left
Nucleic Acid [21] = experiment: Binding affinity to Escherichia coli pUC19 DNA assessed as form 1 DNA level at 0.698 mM by agarose gel electrophoresis; assay type: nucleic-acid assay
Nucleic Acid [22] = experiment: Binding affinity to Escherichia coli pUC19 DNA assessed as form 1 DNA level at 0.175 mM after 13.07 hrs by agarose gel electrophoresis; assay type: nucleic-acid assay
Nucleic Acid [23] = experiment: Binding affinity to Escherichia coli pUC19 DNA assessed as form 2 DNA level at 0.320 mM after 27.33 hrs by agarose gel electrophoresis; assay type: nucleic-acid assay
Nucleic Acid [24] = experiment: Binding affinity to Escherichia coli pUC19 DNA assessed as form 1 DNA level at 0.698 mM after 23.80 hrs by agarose gel electrophoresis; assay type: nucleic-acid assay

Activity (Nucleic Acid [1]): 31.5%
Activity (Nucleic Acid [2]): 76%
Activity (Nucleic Acid [3]): 93.9%
Activity (Nucleic Acid [4]): 72.3%
Activity (Nucleic Acid [5]): 21.8%
Activity (Nucleic Acid [6]): 13.7%
Activity (Nucleic Acid [7]): 94.9%
Activity (Nucleic Acid [8]): 9.19%
Activity (Nucleic Acid [9]): 65.2%
Activity (Nucleic Acid [10]): 78.2%
Activity (Nucleic Acid [11]): 38%
Activity (Nucleic Acid [12]): 48.9%
Activity (Nucleic Acid [13]): 15.3%
Activity (Nucleic Acid [14]): 78.2%
Activity (Nucleic Acid [15]): 84.7%
Activity (Nucleic Acid [16]): 3.73%
Activity (Nucleic Acid [17]): 73.4%
Activity (Nucleic Acid [18]): 2.46%
Activity (Nucleic Acid [19]): 97.1%
Activity (Nucleic Acid [20]): 76.3%
Activity (Nucleic Acid [21]): 98.1%
Activity (Nucleic Acid [22]): 90.8%
Activity (Nucleic Acid [23]): 67.8%
Activity (Nucleic Acid [24]): 55%
SMILES: Cl.Cl.NNC1=NCC(O)CN1 (stereo not given)
Activity (HL-60): 2%
